{"source": "ChEMBL document CHEMBL1128071", "about": "“Rational design, synthesis, and X-ray structure of renin inhibitors with extended P1 sidechains” (Bioorg Med Chem Lett, 1995)", "data": [{"biological_target": "T1, Renin (Homo sapiens, UniProt P00797)", "T1 sequence (P00797 whole entry)": "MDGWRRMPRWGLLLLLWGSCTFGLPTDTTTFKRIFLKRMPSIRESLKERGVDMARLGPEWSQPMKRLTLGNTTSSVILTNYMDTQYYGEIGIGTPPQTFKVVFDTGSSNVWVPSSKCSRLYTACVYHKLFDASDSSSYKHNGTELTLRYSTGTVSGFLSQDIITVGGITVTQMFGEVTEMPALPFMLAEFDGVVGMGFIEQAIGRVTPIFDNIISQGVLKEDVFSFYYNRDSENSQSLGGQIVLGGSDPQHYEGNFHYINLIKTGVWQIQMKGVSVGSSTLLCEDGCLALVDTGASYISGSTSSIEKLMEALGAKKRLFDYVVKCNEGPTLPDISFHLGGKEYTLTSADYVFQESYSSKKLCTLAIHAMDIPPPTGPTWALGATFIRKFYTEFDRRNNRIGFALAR", "assay": "Inhibition against recombinant human renin (rHR)", "units": {"IC50": "µM"}, "values": [{"smiles": "CSC[C@H](NC(C)=O)C(=O)N[C@@H](Cc1ccc(-c2ccccc2)cc1)[C@@H](O)[C@@H](O)CC(C)C", "IC50": 1.1}, {"smiles": "CSC[C@H](NC(=O)CNC(=O)N1CCC(=O)CC1)C(=O)N[C@@H](Cc1ccc(-c2ccccc2)cc1)[C@@H](O)[C@@H](O)CC(C)C", "IC50": 0.13}, {"smiles": "CSC[C@H](NC(=O)CNC(=O)N1CCC(=O)CC1)C(=O)N[C@@H](Cc1cccc(-c2ccccc2)c1)[C@@H](O)[C@@H](O)CC(C)C", "IC50": 0.11}, {"smiles": "CSC[C@H](NC(=O)CNC(=O)N1CCC(=O)CC1)C(=O)N[C@@H](CC1CCCCC1)[C@@H](O)[C@@H](O)CC(C)C", "IC50": 1.2}, {"smiles": "CSC[C@H](NC(C)=O)C(=O)N[C@@H](Cc1cccc(-c2ccccc2)c1)[C@@H](O)[C@@H](O)CC(C)C", "IC50": 1.6}, {"smiles": "CSC[C@H](NC(=O)CNC(=O)N1CCC(=O)CC1)C(=O)N[C@@H](Cc1ccccc1)[C@@H](O)[C@@H](O)CC(C)C", "IC50": 16}, {"smiles": "CSC[C@H](NC(=O)[C@H](Cc1ccccc1)NC(=O)N1CCC(=O)CC1)C(=O)N[C@@H](CC1CCCCC1)[C@@H](O)[C@@H](O)CC(C)C", "IC50": 0.0003}, {"smiles": "CSC[C@H](NC(C)=O)C(=O)N[C@@H](CC1CCCCC1)[C@@H](O)[C@@H](O)CC(C)C", "IC50": 5.1}, {"smiles": "CSC[C@H](NC(=O)CNC(=O)N1CCC(=O)CC1)C(=O)N[C@@H](Cc1ccc(Oc2ccccc2)cc1)[C@@H](O)[C@@H](O)CC(C)C", "IC50": 0.066}]}]}
